Results: patent publication US8187822B2, “Methods to identify modulators” (Givaudan S.A., priority 2007, dated 2012)

Key:
TAS2R10 = target: T1, TAS2R10 (Homo sapiens, UniProt Q9NYW0); test: Fluo-4 calcium assay, HEK293T cells stably expressing Gα16-gustducin44 and TAS2R10; assay type: cell-based
T1 construct: The full length gene of human TAS2R44 was amplified by polymerase chain reaction (PCR) using gene-specific primers that span the entire coding region; RSS tag (first 45 amino acids of rat somatostatin receptor subtype 3) (N); expressed in transfected cells
T1 sequence (Q9NYW0 1-307): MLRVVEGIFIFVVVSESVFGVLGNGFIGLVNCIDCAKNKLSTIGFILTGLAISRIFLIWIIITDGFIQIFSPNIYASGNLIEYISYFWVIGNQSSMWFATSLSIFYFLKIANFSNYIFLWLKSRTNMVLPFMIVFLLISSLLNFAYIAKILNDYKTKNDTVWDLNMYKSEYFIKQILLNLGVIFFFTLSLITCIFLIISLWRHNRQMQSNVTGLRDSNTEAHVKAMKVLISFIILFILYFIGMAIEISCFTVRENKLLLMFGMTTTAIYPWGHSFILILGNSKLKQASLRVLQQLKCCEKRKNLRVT

TAS2R16 = target: T2, TAS2R16 (Homo sapiens, UniProt Q9NYV7); test: Fluo-4 calcium assay, cells expressing TAS2R16 (control of antagonist specificity); assay type: cell-based; settings: for P-β-G + test cpd A ΔF/F0: 25 μM test cpd A
T2 construct: The full length gene of human TAS2R44 was amplified by polymerase chain reaction (PCR) using gene-specific primers that span the entire coding region; RSS tag (first 45 amino acids of rat somatostatin receptor subtype 3) (N); expressed in transfected cells; host or cells: HEK293T cells expressing Gα16-gustducin44
T2 sequence (Q9NYV7 1-291): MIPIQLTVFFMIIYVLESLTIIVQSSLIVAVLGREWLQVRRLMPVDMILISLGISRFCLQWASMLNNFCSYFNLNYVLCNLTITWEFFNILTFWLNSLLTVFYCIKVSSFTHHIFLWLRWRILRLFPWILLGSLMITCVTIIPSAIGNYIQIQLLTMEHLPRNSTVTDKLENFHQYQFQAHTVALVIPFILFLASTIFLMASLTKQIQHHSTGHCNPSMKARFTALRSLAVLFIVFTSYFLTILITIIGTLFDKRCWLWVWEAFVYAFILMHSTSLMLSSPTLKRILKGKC
Description: At day 0, the HEK293T cell line expressing Gα16-gustducin44 and a TAS2R bitter taste receptor formed as described in examples 2b or 2c was seeded in antibiotic-free growth medium (standard DMEM with 10% (v/v) heat-inactivated fetal bovine serum, 2 mM L-glutamine[…]) into black wall/clear bottom 96-well plates, coated with poly(ethylenimine) (0.005% v/v) at a concentration of 15,000 cells per well and incubated for 48 hours in humidified atmosphere (37° C., 5% CO2).
At the time of the assay, the growth medium was discarded and the cells were in humidified atmosphere (37° C., 5% CO2) for 1 hour with 50 μl of loading buffer consisting of 1.5 μM Fluo-4 AM and […] probenicid (Sigma-Aldrich, St. Louis, Mo., US) in DMEM.
Afterwards, the 96-well plate was washed 5 times with 100 μl of assay buffer (130 mM NaCl, 5 mM KCl, 10 mM HEPES, 2 mM CaCl2, and 5 mM dextrose, pH 7.4) per well, using an automated plate washer (BioTek). The plate was further incubated for 30 minutes at room temperature in the dark to allow for complete de-esterification of the Fluo-4. Afterwards the plate was washed 5 times with 100 μl of assay buffer per well, and reconstituted with 100 μl of assay buffer per well.
For assay reading, the plate was placed in a Fluorometric Imaging Plate Reader (FLIPR) (FLIPR-TETRA™, Molecular Devices, Sunnyvale, Calif., US), and receptor activation was initiated by addition of 100 μl of a twofold concentrated agonist stock solution (to give the desired agonist end concentration when added to the 100 microliter assay buffer volume), which was prepared in assay buffer.
Fluorescence was continuously monitored for 20 seconds to give a signal baseline (averaged to give F0) prior to agonist addition and for 120 seconds after agonist addition. The change in signal divided by F0 gives ΔF/F0 indicated in the table, with ΔF being the maximum signal occurring within the 120 seconds minus the minimum signal (occurring within the 120 seconds after agonist addition.
All data was collected from at least two independent experiments each carried out in triplicate.
A concentration-response analysis was performed and EC50 values were calculated by nonlinear regression using the function f(x)=(a−d)/(1+(x/C)^nh)+d; with a=minimum signal, d=maximum signal, nh=hill coefficient, C=EC50, and x=agonist concentration. EC50 is the molar concentration of an agonist which produces 50% of the maximum possible effective response for that agonist.
The obtained calcium signals were corrected for the response of cells expressing only the G Protein α subunit (Gα16-gustducin44) and normalized to the fluorescence of cells prior to the stimulus using ΔF/F0 (Fmax−Fmin/F0).
All cells were HEK293T cells stably expressing Gα16-gustducin44, or expressing Gα16-gustducin44 and a TAS2R receptor (TAS2R44, TAS2R16).
The method was carried out as described in example 3 subject to the following modifications: The samples were tested with and without test compound A (test cpd A) and the signals were compared. The test compound was dissolved in dimethylsulfoxide (DMSO), and a negative control with equivalent DMSO concentration (0.02%) was performed accordingly to exclude a potential inhibitory effect of the solvent.
As a control of antagonist specificity, the response of an unrelated bitter taste receptor (TAS2R16) to its agonist phenyl-β-glucopyranosides is also detected (see results in table 8 herein below).

TAS2R10 ΔF/F0 (TAS2R10; sucralose 0.3906 mM)	TAS2R10 ΔF/F0 (TAS2R10; sucralose 0.7813 mM)	TAS2R10 ΔF/F0 (TAS2R10; sucralose 1.5625 mM)	TAS2R10 ΔF/F0 (TAS2R10; sucralose 3.1250 mM)	TAS2R10 ΔF/F0 (TAS2R10; sucralose 6.2500 mM)	TAS2R10 ΔF/F0 (TAS2R10; sucralose 12.5000 mM)	TAS2R10 ΔF/F0 (TAS2R10; sucralose 25.0000 mM)	TAS2R10 ΔF/F0 (TAS2R10; sucralose 50.0000 mM)	TAS2R10 ΔF/F0 (TAS2R10; sucralose 100.0000 mM)	P-β-G + test cpd A ΔF/F0 (TAS2R16; P-β-G 0.0391 mM)	P-β-G + test cpd A ΔF/F0 (TAS2R16; P-β-G 0.0781 mM)	P-β-G + test cpd A ΔF/F0 (TAS2R16; P-β-G 0.1563 mM)	P-β-G + test cpd A ΔF/F0 (TAS2R16; P-β-G 0.3125 mM)	P-β-G + test cpd A ΔF/F0 (TAS2R16; P-β-G 0.6250 mM)	P-β-G + test cpd A ΔF/F0 (TAS2R16; P-β-G 1.2500 mM)	P-β-G + test cpd A ΔF/F0 (TAS2R16; P-β-G 2.5000 mM)	P-β-G + test cpd A ΔF/F0 (TAS2R16; P-β-G 5.0000 mM)	P-β-G + test cpd A ΔF/F0 (TAS2R16; P-β-G 10.0000 mM)	effect on the response of TAS2R16 to phenyl-β-glucopyranoside, in words (TAS2R16; test compound at 25 μM)	SMILES	calcium signaling in TAS2R10 cells, in words (TAS2R10)
0.050	0.050	0.047	0.053	0.053	0.059	0.087	0.212	0.437											OC[C@H]1O[C@H](O[C@]2(CCl)O[C@H](CCl)[C@@H](O)[C@@H]2O)[C@H](O)[C@@H](O)[C@H]1Cl [Sucralose, sucralose]	significant concentration-dependent increase in calcium signaling
									−0.013	0.108	0.702	1.548	2.139	2.367	2.480	2.646	2.830	does not block the response	CC1=CCC(C/C=C/C(=O)O)C1(C)C (centres unmarked) [test cpd A, (E)-4-(2,2,3-trimethylcyclopent-3-enyl)but-2-enoic acid]	
